{"source": "patent US20020169111A1", "about": "“Reversal of multidrug resistance in human colon carcinoma cells” (American Cyanamid Comany, priority 1998, published 2002)", "key": {"S1 cells": {"system": "S1 cells", "assay": "Drug accumulation analysis with [14C] drug", "assay_type": "cell-based, human", "conditions": "90 minutes", "protocol": "(§1) To determine the mechanism of resistance, drug resistant and sensitive cells were incubated with radioactive analogues of antitumor agents and cell-associated radioactivity was measured by scintillation counting. Alternatively, surrogates of chemotherapeutic drugs may be used. The surrogate has no antitumor activity itself but interacts with the cancer cell proteins such as P-gp or MRP in a similar manner as an anticancer drug. The surrogate chemotherapeutic drug would have a property such as fluorescence which is useful for determining the drug resistance mechanisms such as efflux.\n(§2) Cells were plated in 60 mm dishes (1×10^6 cells per dish) or in 24 well clusters (2 ×10^5 cells per well) and allowed to grow for 1-2 days. […] Drugs used were [^14C]-mitoxantrone (Amersham, 1 or 5 μM; specific activity 66 mCi/mmol) or [^14C]-doxorubicin (Amersham, 0.5 or 3 μM; specific activity 50-62 mCi/mmol ). […] Unbound drug was removed by washing twice in ice-cold phosphate buffered saline (PBS), cells were solubilized in 2 N NaOH at 37° C. for 1-2 hours, and analyzed by scintillation counting. Results were normalized to cell protein content measured by a Lowry assay.\n(§3) The cells were then washed, solubilized, and counted in a scintillation counter. Values are mean disintegration per minute per μg protein of triplicate determinations ± standard deviation."}, "S1-B1-20 cells": {"system": "S1-B1-20 cells", "assay": "Drug accumulation analysis with [14C] drug", "assay_type": "cell-based, human", "conditions": "90 minutes", "protocol": "as §1, §2, §3"}, "S1-M1-3.2 cells": {"system": "S1-M1-3.2 cells", "assay": "Drug accumulation analysis with [14C] drug", "assay_type": "cell-based, human", "conditions": "S1-M1-3.2 cells", "protocol": "as §1, §2, §3"}, "MCF-7 cells": {"system": "MCF-7 cells", "assay_type": "cell-based, human", "conditions": "1 hour retention phase", "protocol": "(§4) All incubations were carried out in the absence or presence of FTC (1 or 5 μM)."}, "MCF-7/BCRP cells": {"system": "MCF-7/BCRP cells", "assay_type": "cell-based, human", "conditions": "MCF-7/BCRP", "protocol": "as §4"}, "H460": {"system": "H460", "assay": "Sensitization of unselected cells to mitoxantrone", "assay_type": "cell-based", "conditions": "H460 non small cell lung carcinoma, not selected"}, "[1]": {"conditions": "1 μM [14C]-doxorubicin, 1 hour retention phase"}, "[2]": {"conditions": "1 μM daunorubicin, 1 hour retention phase"}}, "data": [{"smiles": "COc1ccc2c3c([nH]c2c1)[C@H](C=C(C)C)N1C(=O)[C@@H]2CCCN2C(=O)[C@@H]1C3", "note": "[Fumitremorgin C]", "values": [{"measurement": "Doxorubicin Drug Accumulation with 1 μM FTC", "setting": "S1 cells; [14C] doxorubicin", "value": "111 ± 15", "unit": "DPM/μg protein"}, {"measurement": "Mitoxantrone Drug Accumulation with 1 μM FTC", "setting": "S1 cells; [14C] mitoxantrone", "value": "2246 ± 233", "unit": "DPM/μg protein"}, {"measurement": "Doxorubicin Drug Accumulation with 1 μM FTC", "setting": "S1-B1-20 cells; [14C] doxorubicin", "value": "26 ± 1", "unit": "DPM/μg protein"}, {"measurement": "Mitoxantrone Drug Accumulation with 1 μM FTC", "setting": "S1-B1-20 cells; [14C] mitoxantrone", "value": "1189 ± 53", "unit": "DPM/μg protein"}, {"measurement": "increase of amount of doxorubicin retained", "setting": "S1-M1-3.2 cells; 1 μM FTC", "value": 3.4, "unit": "fold"}, {"measurement": "increase of amount of mitoxantrone retained", "setting": "S1-M1-3.2 cells; 1 μM FTC", "value": 2, "unit": "fold"}, {"measurement": "Doxorubicin Drug Accumulation with 1 μM FTC", "setting": "S1-M1-3.2 cells; [14C] doxorubicin, 90 minutes", "value": "65 ± 17", "unit": "DPM/μg protein"}, {"measurement": "Mitoxantrone Drug Accumulation with 1 μM FTC", "setting": "S1-M1-3.2 cells; [14C] mitoxantrone, 90 minutes", "value": "2220 ± 147", "unit": "DPM/μg protein"}, {"measurement": "[^14C] doxorubicin retention, 1 μM FTC", "setting": "MCF-7 cells; 1 μM [14C]-doxorubicin", "value": "10.3 ± 0.26", "unit": "DPM per microgram protein"}, {"measurement": "[^14C] doxorubicin retention, 5 μM FTC", "setting": "MCF-7 cells; 1 μM [14C]-doxorubicin", "value": "11.0 ± 0.71", "unit": "DPM per microgram protein"}, {"measurement": "daunorubicin retention, Channel Number (fluorescence units), 1 μM FTC", "setting": "MCF-7 cells; 1 μM daunorubicin", "value": "16.0 ± 0.98", "unit": "fluorescence units"}, {"measurement": "daunorubicin retention, Channel Number (fluorescence units), 5 μM FTC", "setting": "MCF-7 cells; 1 μM daunorubicin", "value": "16.8 ± 1.0", "unit": "fluorescence units"}, {"measurement": "[^14C] doxorubicin retention, 1 μM FTC", "setting": "MCF-7/BCRP cells; [1]", "value": "9.5 ± 0.63", "unit": "DPM per microgram protein"}, {"measurement": "[^14C] doxorubicin retention, 5 μM FTC", "setting": "MCF-7/BCRP cells; [1]", "value": "9.9 ± 0.18", "unit": "DPM per microgram protein"}, {"measurement": "daunorubicin retention, Channel Number (fluorescence units), 1 μM FTC", "setting": "MCF-7/BCRP cells; [2]", "value": "12.2 ± 1.78", "unit": "fluorescence units"}, {"measurement": "daunorubicin retention, Channel Number (fluorescence units), 5 μM FTC", "setting": "MCF-7/BCRP cells; [2]", "value": "15.6 ± 0.94", "unit": "fluorescence units"}, {"measurement": "increase of amount of [^14C]-doxorubicin retained compared with untreated cells", "setting": "MCF-7/BCRP cells; FTC 1 or 5 μM", "value": 1.8, "unit": "fold"}, {"measurement": "increase of amount of daunorubicin retained compared with untreated cells", "setting": "MCF-7/BCRP cells; FTC 1 or 5 μM", "value": "1.8-2.3 fold"}, {"measurement": "sensitization to mitoxantrone (in words)", "setting": "H460", "value": "can be sensitized to mitoxantrone"}]}]}
